B1: OPG: secreted decoy receptor that can reduce the RANKL activity (protein, UniProt O00300 22-401, looked up)
Tumor necrosis factor …: ETFPPKYLHYDEETSHQLLCDKCPPGTYLKQHCTAKWKTVCAPCPDHYYTDSWHTSDECLYCSPVCKELQYVKQECNRTHNRVCECKEGRYLEIEFCLKHRSCPPGFGVVQAGTPERNTVCKRCPDGFFSNETSSKAPCRKHTNCSVFGLLLTQKGNATHDNICSGNSESTQKCGIDVTLCEEAFFRFAVPTKFTPNWLSVLVDNLPGTKVNAESVERIKRQHSSQEQTFQLLKLWKHQNKDQDIVKKIIQDIDLCENSVQRHIGHANLTFEQLRSLMESLPGKKVGAEDIEKTIKACKPSDQILKLLSLWRIKNGDQDTLKGLMHALKHSKTYHFPKTVTQSLKKTIRFLHSFTMYKLYQKLFLEMIGNQVQSVKISCL

Assays:
[1] = tested on: RANKL; experiment: RANKL expression in purified mammary epithelial cells (qRT-PCR, Western blot); assay type: in vivo, mouse; conditions: nulliparous wild type females, 3 days after implantation/oral gavage
Procedure: a,b, MPA induces RANKL expression in mammary epithelial cells. Nulliparous wild type females were treated with oral gavage of DMBA or oil vehicle, s.c. implanted with slow-release MPA pellets, or treated with sham surgery. a, RANKL mRNA was determined in purified mammary epithelial cells by qRT-PCR 3 days after implantation/oral gavage. Data are shown as fold change compared to sham treatment+/−sem. n=3 mice per group. b, Expression of soluble (s) RANKL protein (19 kDa) was assayed on cell lysates from purified mammary epithelial cells by Western blot 3 days after treatment with oil vehicle, DMBA, MPA, or sham surgery. β-actin is shown as a loading control. […] Data are shown as percentage of tumor-free mice after the last DMBA challenge. No significant difference was found between the Cre+ and the Cre− control groups. Median tumor onset for Cre^+ controls was 9 days, for Cre^− controls 11 days, and for RANK^Δmam females 30 days after the last DMBA treatment. d, Representative Southern blot of MPA/DMBA-induced mammary tumors derived from RANK^flox/+; MMTV-Cre+ and RANK^flox/Δ; MMTV-Cre+ (RANK^Δmam) females. […]
Total RNA of tumors was prepared using the RNeasy Mini Kit (Qiagen), according to the manufacturer's instructions. Total RNA (2 μg) was subjected to quantitative (q)RT-PCR analysis. […]

[2] = tested on: human SKBR3 breast cancer cells; experiment: Soft-Agar Colony Formation Assay; assay type: cell-based; conditions: OPG (1 μg/ml) with RANKL (1 μg/ml)
Procedure: a, Western blotting for phosphorylated (P) IKKα, total IKKα, phosphorylated (P) p65 NFκB, total p65 NFκB, phosphorylated (P) IκBα, and total IκBα in isolated primary mouse mammary gland epithelial cells (MECs) in response to RANKL stimulation (1 μg/ml). […] is shown as loading control. b, Western blotting for IKKα, IKKβ, IKKγ, phosphorylated (P) p65 NFκB, total p65 NFκB, phosphorylated (P) IκBα, and total IκBα in pooled late stage mammary adenocarconimas (n=4 for each lane) that developed in control, RANK^Δmam, and IKKα^Δmam females. β-actin is shown as loading control c, Expression of RANK, CyclinD1, and p21 mRNA in late stage mammary adenocacinomas that developed in control, RANK^Δmam, and IKKα^Δmam females. Expression was determined by qRT-PCR. Data are mean values+/−sem. n=4 per group. d, Soft-Agar Colony Formation Assay. Growth of human SKBR3 breast cancer cells in soft agar in response to stimulation with RANKL (1 μg/ml) or EGF (100 ng/ml). […] Apoptosis was detected by immunostaining for active Caspase 3. f, Apoptotic nuclei of epithelial cells (arrows) are shown for representative mammary gland sections. Magnifications ×40. g, Quantification of mammary epithelial apoptosis. A minimum of 5000 nuclei was counted for each mouse. […]

| Molecule | RANKL mRNA and protein expression in mammary epithelial cells [1] | RANKL-induced colony formation in soft agar [2] |
| --- | --- | --- |
| Cc1c2ccccc2c(C)c2c1ccc1ccccc12 [DMBA, dimethylbenz[a]anthracene] | not |  |
| B1 |  | prevented |
